Data set [1] deals with SH-SY5Y cells. Briefly: Transwell co-culture assay, SH-SY5Y cell viability by MTT. Format: cell-based. From the text: In this and the following examples, human neuroblastoma cell line SH-SY5Y (a cell model of dopaminergic neurons for Parkinson's disease research) that was damaged by 6-hydroxydopamine (6-OHDA, i.e., 2,4,5-trihydroxyphenethylamine)-induced oxidative stress was used to assess the effects of GA on the homing ability of MSCs and the neuroprotective effects of GA pre-treated MSCs and the exosomes derived therefrom. SH-SY5Y cells were obtained from the American Type Culture Collection (ATCC; Manassas, Va., USA). The SH-SY5Y cells were cultured in a humidified incubator at 37° C. with 5% CO2. DMEM (Life Technologies, USA) supplemented with 10% FBS (Hyclone, Thermo Fisher Scientific, USA) and 1% penicillin-streptomycin (Gibco, Thermo Fisher Scientific, USA) was used for culturing of the SH-SY5Y cells.
To determine whether GA can promote MSCs to rescue nerve cell death, transwell co-culture assay was performed where WJMSCs (2×10^4 cells) pre-treated with 0, 20, 40, or 80 μM GA for 24 hours were placed in the upper chamber of a transwell insert, and SH-SY5Y cells (3×10^4 cells) treated with 100 μM 6-OHDA were seeded in the bottom well of the transwell plate. After co-culture of the cells at 37° C. for 24 hours, the SH-SY5Y cell viability was determined by MTT assay. […]

Data set [2] deals with SH-SY5Y cells. Briefly: Western blotting of apoptosis-related, anti-apoptotic and OXPHOS proteins in 6-OHDA-stimulated SH-SY5Y cells. The format is cell-based, human. Particulars: FIG. 5C. Here is the method: To further investigate the molecular events associated with the anti-apoptotic effects of GA pre-treated MSC-derived exosomes, the expression of apoptosis-related and anti-apoptotic proteins in 6-OHDA-stimulated SH-SY5Y cells was measured using western blotting. The damaged SH-SY5Y cells were treated with exosomes isolated either from GA pre-treated WJMSCs (80 μM GA for 24 hours) or untreated WJMSCs.
Moreover, the expression of mitochondrial proteins involved in oxidative phosphorylation (OXPHOS), including ATP5A, UQCRC2, MTCO1, SDHB, and NDUFB8, was examined by western blotting.
(In western blotting, separated proteins are transferred to a membrane and probed.)

For data set [3], the system named is SH-SY5Y cells. In words: Autophagic flux in SH-SY5Y cells by LC3B immunofluorescence and western blotting. The format is cell-based, human. Here is the method: SH-SY5Y cells under 6-OHDA stimulation were treated with exosomes isolated either from GA pre-treated WJMSCs (80 μM GA for 24 hours) or untreated WJMSCs. For immunofluorescence staining, the treated cells were fixed in 4% PFA, incubated with an anti-LC3B primary antibody followed by a fluorophore-conjugated secondary antibody, and stained with 4′,6-diamidino-2-phenylindole (DAPI). The SH-SY5Y cells were then visualized by a fluorescence microscope (Olympus).

For the molecule `NCCc1cc(O)c(O)cc1O` [6-OHDA, 2,4,5-trihydroxyphenethylamine], in the data set on SH-SY5Y cells [1] (100 μM 6-OHDA, MTT, FIG. 3A), the “SH-SY5Y cell viability, effect of 6-OHDA” value is recorded as “decreased SH-SY5Y cell viability”. In addition, the “expression of mitochondrial OXPHOS proteins (ATP5A, UQCRC2, MTCO1, SDHB, NDUFB8)” value with SH-SY5Y cells [2] was “downregulated the expression of the OXPHOS proteins”. Also, in the data set on SH-SY5Y cells [3] (immunofluorescence, anti-LC3B, FIG. 6A), the “LC3 puncta (autophagosome formation) in SH-SY5Y cells” value is reported as “abundant”. For the same molecule, in the data set on SH-SY5Y cells [3] (western blotting, FIG. 6B), the “autophagy-related protein expression (Beclin-1, LC3B, p62) in SH-SY5Y cells” value was “increased Beclin-1 and LC3B expression but decreased p62 protein expression”.
Turning to `O=C(/C=C/c1ccc(/C=C/C(=O)Nc2ccc(C3=NCCN3)cc2)cc1)Nc1ccc(C2=NCCN2)cc1` [GW4869], the “protective effect of the GA pre-treated WJMSCs on SH-SY5Y viability in the presence of GW4869” value with SH-SY5Y cells [1] (co-culture assay with exosome generation inhibitor, FIG. 3B) was “suppressed”.

These data come from patent US20230145213A1, “Pre-conditioned mesenchymal stem cells and preparations and applications thereof” (BUDDHIST TZU CHI MEDICAL FOUNDATION, priority 2021, published 2023).
